These results are taken from patent US8283481B2, “Inhibitors of a 9-cis epoxycarotenoid dioxygenase” (National Research Council of Canada, priority 2008, dated 2012).

Test [1] has as its system ABA and catabolites in Arabidopsis thaliana Col-0 plants. Briefly: Total ABA metabolite levels in mannitol stressed plants treated with SLCCD inhibitors. It is filed as in vivo. To be noted: for effect on ABA and catabolite pools under osmotic stress, compared with 13 (in words): whole time course. The procedure:
For each condition to be tested, three hundred wild-type Arabidopsis thaliana Col-0 seeds (LEHLE) were sterilized, vernalized and sewn onto 200 mL of Sunshine Mix #3 (Sun Gro) potting material in an 8×8×4 cm pot. Plants were watered continuously with 25 g/100 mL of 20-20-20 (PlantProd™) fertilizer and grown at 22° C. with a 16 hour photoperiod for 22 days. Plants were pre-treated with 50 mL/pot of Buffer A (10 mM HEPES pH 6.5) (Sigma)+/−10 or 33 μM test compound for 2 hours. Plants were then soaked with 50 mL/pot of Buffer A containing 0.4 M mannitol (Sigma)+/−10 or 33 μM test compound. Non-treated/non-stressed control plants were simply soaked in Buffer A at the designated time points. […] Half of the tissue samples were lyophilized for metabolite profiling and the other half taken for quantitative reverse-transcription polymerase chain reaction (qRT-PCR) analysis.
Freeze-dried tissue was homogenized using a multi-tube ball mill (Mini-BeadBeater-96™, Biospec Products Inc., Bartlesville, Okla., USA) and 50 mg of each sample was weighed out into individual Falcon tubes. To each sample, 100 μL of a cocktail of internal standards comprised of (−)-5,8′,8′,8′-d4-ABA, (−)-7′,7′,7′-d3-PA, (−)-5,8′,8′,8′-d4-7′OH ABA, (−)-7′,7′,7′-d3-DPA and (+)-4,5,8′,8′,8′-d5-ABAGE, each at a concentration of 0.2 ng/μL and dissolved in a mixture of water:acetonitrile (1:1, v/v) with 0.5% glacial acetic acid, was added. Further, 3 mL of isopropanol:water:glacial acetic acid (80:19:1, v/v/v) extraction solvent was added, and samples were placed in the fridge (4° C., in the dark) on an orbital shaker at about 350 rpm. After 18-24 hours, the samples were centrifuged at 4.4 krpm for 10 min, the supernatant was transferred to a disposable culture tube, and a second portion of 500 μL extraction solvent mixture was added to wash the pellet. After vortexing and centrifuging again at 4.4 krpm for 10 min, each wash was combined with its appropriate supernatant. The organic extract was dried under reduced pressure, then re-dissolved in 100 μL methanol:glacial acetic acid (99:1, v/v) followed by 900 μL of aqueous 1% glacial acetic acid. This mixture was extracted with 2 mL hexane, and then the aqueous layer was dried down under reduced pressure. The sample was further reconstituted in 2 mL aqueous 1% glacial acetic acid and loaded onto an Oasis MCX SPE cartridge (3 cc, Waters Corporation, Mississauga, Ontario, Canada). After a wash with 3 mL aqueous 1% glacial acetic acid, samples were eluted with 1 mL methanol:glacial acetic acid (99:1, v/v) and then dried down under reduced pressure. The extract was re-dissolved in 100 μL methanol:glacial acetic acid (99:1, v/v) followed by 900 μL of aqueous 1% glacial acetic acid. This mixture was further cleaned on an Oasis HLB SPE cartridge (1 cc, Waters Corporation, Mississauga, Ontario, Canada). After a wash with 1 mL aqueous 1% glacial acetic acid, the fraction containing ABA and ABA metabolites was eluted with 1 mL acetonitrile:water:glacial acetic acid (30:69:1, v/v/v) and then was evaporated to dryness. The final residue was dissolved in 200 μL of acetonitrile:water (15:85, v/v) containing 0.1% glacial acetic acid and 100 pg/μL (±)-3′,5′,5′,7′,7′,7′-d6-ABA as a recovery standard. Finally, the sample was subjected to LC-ES-MS/MS analysis and quantification, as described in Owen and Abrams, 2008.^39

Test [2] concerns Arabidopsis thaliana Col-0 seeds. In words: Seed germination assay. It is filed as in vivo. The procedure:
Arabidopsis thaliana Col-0 seeds were sterilized by washing them with 10% sodium hypochlorite and 20% sodium dodecyl sulfate (Sigma) for five minutes and then rinsing four times with sterile water. Seeds were moist chilled for 4 days and then plated on germination medium (0.41% MS salts, 1% sucrose, 0.05% MES and 0.1% Gamborg's vitamins, pH 5.7, 0.7% agar) (Sigma) containing either 0.1, 0.33, 1.0 or 3.33 μM of inhibitor or (+)-ABA 1. As a control, seeds were sewn and germinated on media only without inhibitors or (+)-ABA 1. Germination was recorded over seven days and indexes calculated as described previously.^40

Setting [3] is: highest concentration tested (3.33 μM).
Setting [4] is: 33 μM inhibitor, mannitol stress.

Structures are written as SMILES.

`CCSCC=C(C)C#CC1(O)C(C)CC(=O)CC1(C)C` (racemic) [Compound 13, (4S,5R/4R,5S)-(3′Z)-4-(5′-(Ethylthio)-3′-methylpent-3′-en-1′-ynyl)-4-hydroxy-3,3,5-trimethylcyclohexanone]: the “total levels of ABA and catabolites” value in test [1] (33 μM inhibitor 2 h before and during 0.4 M mannitol stress, 24 hours, mannitol only 15147 pmol/g) came out at 8211 pmol/g. In addition, the “levels of ABA and catabolites at first time point (in words)” value in test [1] (33 μM inhibitor, mannitol stress, first 6 hours) was “comparable to those of the non-treated/non-stressed control plants”. Also, the “reduction of seed germination” value in test [2] (1 μM in germination medium) was found to be 26%; in test [2] (setting [3]) it was 38%. Moreover, the “less effect on germination than (+)-ABA 1” value in test [2] (compared with (+)-ABA 1) was 60-70%. Also, the “effect on seed germination at low concentrations (in words)” value in test [2] is “slight promotion effects”.
Turning to `C/C(C#C[C@@]12O[C@]1(C)C[C@@H](O)CC2(C)C)=C/CSc1ccccc1` [Compound 17, (1R,3S,6R)-(3′Z)-1,5,5-Trimethyl-6-(3′-methyl-5′-(phenylthio)-pent-3′-en-1′-ynyl)-7-oxa-bicyclo[4.1.0]heptan-3-ol], in test [1] (setting [4]), the “effect on ABA and catabolite pools under osmotic stress, compared with 13 (in words)” value is listed as “less effective than 13”. The “reduction of seed germination” value was found to be 26% in test [2] (1 μM in germination medium) and 51% in test [2] (setting [3]). Further, the “effect on seed germination at low concentrations (in words)” value in test [2] is reported as “slight promotion effects”.
As to `C/C(C#C[C@@]12O[C@]1(C)C[C@@H](O)CC2(C)C)=C/CNc1ccccc1` [Compound 18, (1R,3S,6R)-(3′Z)-1,5,5-Trimethyl-6-(3′-methyl-5′-(phenylamino)-pent-3′-en-1-ynyl)-7-oxabicyclo[4.1.0]heptan-3-ol], the “effect on ABA and catabolite pools under osmotic stress, compared with 13 (in words)” value in test [1] (setting [4]) is reported as “less effective than 13”. The “reduction of seed germination” value is on record as 50% in test [2] (1 μM in germination medium) and 71% in test [2] (setting [3]).
